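Following 48 hours of exposure in 96-well plates, responses at five concentrations were used to interpolate endpoints linearly. GI50 marks 50% less growth. The concentration for full growth arrest is given as TGI.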
Experiments:
Experiment in all cases: NCI anticancer screen, dose series, 48 h
[1] = test system: SK-MEL-5 melanoma
[2] = test system: COLO 205 colon
[3] = test system: UACC-62 melanoma
[4] = test system: MDA-MB-435
[5] = test system: SN12C renal
[6] = test system: UACC-257 melanoma
[7] = test system: NCI-H460 lung
[8] = test system: K-562 leukemia
[9] = test system: SNB-19 CNS
[10] = test system: OVCAR-8 ovarian
[11] = test system: SF-295 CNS
[12] = test system: NCI-H226 lung
[13] = test system: A498 renal
[14] = test system: HCT-116 colon
[15] = test system: MCF7 breast
[16] = test system: CAKI-1 renal
[17] = test system: U251 CNS
[18] = test system: SK-MEL-28 melanoma
[19] = test system: M14 melanoma
[20] = test system: CCRF-CEM leukemia
[21] = test system: RPMI-8226 leukemia
[22] = test system: EKVX NSCLC
[23] = test system: BT-549 breast
[24] = test system: HS 578T breast
[25] = test system: RXF 393 renal
[26] = test system: 786-0 renal
[27] = test system: NCI-H23 lung
[28] = test system: OVCAR-4 ovarian
[29] = test system: SW-620 colon
[30] = test system: HT29 colon
[31] = test system: DU-145 prostate
[32] = test system: MOLT-4 leukemia
[33] = test system: IGROV1 ovarian
[34] = test system: KM12 colon
[35] = test system: HCT-15 colon
[36] = test system: MALME-3M melanoma
[37] = test system: HOP-62 NSCLC
[38] = test system: A549 NSCLC
[39] = test system: NCI-H522 lung
[40] = test system: OVCAR-5 ovarian
[41] = test system: SF-268 CNS
[42] = test system: SF-539 CNS
[43] = test system: HL-60(TB) leukemia
[44] = test system: SK-MEL-2 melanoma
[45] = test system: HOP-92 NSCLC
[46] = test system: SR leukemia
[47] = test system: TK-10 renal
[48] = test system: HCC-2998 colon
[49] = test system: PC-3 prostate
[50] = test system: SNB-75 CNS
[51] = test system: ACHN renal
[52] = test system: SK-OV-3 ovarian

O=C(Nc1ccc(F)c(F)c1)c1cc(-c2ccc(F)cc2F)ccc1O
GI50 [1]: 694 nM
TGI [1]: 1670 nM
GI50 [2]: 10600 nM
TGI [2]: 30500 nM
GI50 [3]: 628 nM
TGI [3]: 2410 nM
GI50 [4]: 1430 nM
TGI [4]: 6510 nM
GI50 [5]: 1090 nM
TGI [5]: 4630 nM
GI50 [6]: 781 nM
TGI [6]: 3600 nM
GI50 [7]: 1460 nM
TGI [7]: > 50000 nM
GI50 [8]: 1370 nM
TGI [8]: > 50000 nM
GI50 [9]: 1650 nM
TGI [9]: > 50000 nM
GI50 [10]: 1650 nM
TGI [10]: > 50000 nM
GI50 [11]: 1200 nM
TGI [11]: 3580 nM
GI50 [12]: 1510 nM
TGI [12]: 10100 nM
GI50 [13]: 636 nM
TGI [13]: 2070 nM
GI50 [14]: 1120 nM
TGI [14]: 5940 nM
GI50 [15]: 1180 nM
TGI [15]: > 50000 nM
GI50 [16]: 1100 nM
TGI [16]: 3520 nM
GI50 [17]: 1480 nM
TGI [17]: > 50000 nM
GI50 [18]: 1410 nM
TGI [18]: 19100 nM
GI50 [19]: 1630 nM
TGI [19]: 9820 nM
GI50 [20]: 1620 nM
TGI [20]: > 50000 nM
GI50 [21]: 768 nM
TGI [21]: 2720 nM
GI50 [22]: 1380 nM
TGI [22]: 15700 nM
GI50 [23]: 1060 nM
TGI [23]: 7180 nM
GI50 [24]: 1610 nM
TGI [24]: > 50000 nM
GI50 [25]: 1250 nM
TGI [25]: 3870 nM
GI50 [26]: 1120 nM
TGI [26]: 2900 nM
GI50 [27]: 1070 nM
TGI [27]: 3230 nM
GI50 [28]: 1370 nM
TGI [28]: > 50000 nM
GI50 [29]: 1790 nM
TGI [29]: > 50000 nM
GI50 [30]: 13800 nM
TGI [30]: > 50000 nM
GI50 [31]: 1850 nM
TGI [31]: > 50000 nM
GI50 [32]: 1540 nM
TGI [32]: 5860 nM
GI50 [33]: 1810 nM
TGI [33]: > 50000 nM
GI50 [34]: 1670 nM
TGI [34]: 6650 nM
GI50 [35]: 1430 nM
TGI [35]: 6230 nM
GI50 [36]: 1010 nM
TGI [36]: 3070 nM
GI50 [37]: 1590 nM
TGI [37]: 6150 nM
GI50 [38]: 1570 nM
TGI [38]: > 50000 nM
GI50 [39]: 923 nM
TGI [39]: > 50000 nM
GI50 [40]: 1550 nM
TGI [40]: > 50000 nM
GI50 [41]: 1580 nM
TGI [41]: > 50000 nM
GI50 [42]: 1730 nM
TGI [42]: > 50000 nM
GI50 [43]: 1110 nM
TGI [43]: 2810 nM
GI50 [44]: 979 nM
TGI [44]: 2860 nM
GI50 [45]: 684 nM
TGI [45]: 2640 nM
GI50 [46]: 1920 nM
TGI [46]: > 50000 nM
GI50 [47]: 1700 nM
TGI [47]: > 50000 nM
GI50 [48]: 1490 nM
TGI [48]: > 50000 nM
GI50 [49]: 1490 nM
TGI [49]: > 50000 nM
GI50 [50]: 906 nM
TGI [50]: 2720 nM
GI50 [51]: 1460 nM
TGI [51]: 4550 nM
GI50 [52]: 1370 nM
TGI [52]: 4700 nM
